{"source": "patent US12617779B2", "about": "“Self degradation-type CDK9 inhibitor prodrug and liposome encapsulating same” (Sumitomo Pharma Co., Ltd., priority 2021, dated 2026)", "key": {"[1]": {"test": "Evaluation of conversion rate to active form in BALB/c mouse plasma (Experimental Example 3)", "assay_type": "in vitro ADME", "settings": "BALB/c, mouse, 0.2 μmol/L", "procedure": "(§1) For Example 1, Example 2, Example 3, Example 4, Example 5, Example 6, Comparative Example 3, Comparative Example 4, Comparative Example 6, Comparative Example 7, Comparative Example 8, Comparative Example 9, Comparative Example 10 and Comparative Example 12, the attrition rate of the test compound and the conversion rate of the test compound to Alvocidib in human plasma and BALB/c mouse plasma were calculated by the following method.\n(§2) The test compound was added to human plasma or BALB/c mouse plasma at a concentration of 0.2 μmol/L, and incubated at 37° C. The peak areas of the test compound and Alvocidib in the sample were determined by LC-MS/MS after 0, 30 and 60 minutes for Example 1, Example 2, Example 3, Example 4, Example 5 and Example 6, and after 0, 60 and 120 minutes for Comparative Example 3, Comparative Example 4, Comparative Example 6, Comparative Example 7, Comparative Example 8, Comparative Example 9, Comparative Example 10 and Comparative Example 12, and the attrition rate of the test compound and the conversion rate of the test compound to Alvocidib were calculated by the following formula. Attrition rate of test compound (%):(peak area of test compound in sample/peak area of test compound in sample after 0 minute)×100 Conversion rate to Alvocidib (%):(peak area of Alvocidib in sample/peak area of Alvocidib in reaction solution containing 0.2 μmol/L Alvocidib)×100\n(§3) The measurement conditions for LC-MS/MS are as follows. • HPLC: Prominence system (Shimadzu Corporation) • MS/MS: • Example 1, Example 2, Example 3, Example 4, Example 5, Example 6, Comparative Example 8 (mouse), Comparative Example 10 (mouse) and Comparative Example 12 (mouse) • QTRAP5500 (SCIEX) • Comparative Example 6, Comparative Example 7, Comparative Example 8 (human), Comparative Example 9, Comparative Example 10 (human) and Comparative Example 12 (human) • 4000 QTRAP (SCIEX) • column: • other than Example 3 and Example 4 • Cadenza CD-C18, 3 μm, 50×2 mm (Imtakt Corporation) • Example 3 and Example 4 • Kinetex C8, 2.6 μm, 50×2.1 mm (Phenomenex) • column temperature: 40° C. • mobile phase: • A: water containing 0.1% formic acid • B: acetonitrile containing 0.1% formic acid • A/B (min): • Example 1, Example 2, Example 5, Example 6, Comparative Example 8 (mouse), Comparative Example 10 (mouse) and Comparative Example 12 (mouse) • 90/10(0)→40/60(5.0)→10/90(5.1)→10/90(6.5)→90/10(6.6)→90/10(8.0) • Example 3 and Example 4 • 86/14(0)→86/14(3.5)→10/90(5.5)→10/90(6.5)→86/14(6.6)→86/14(9.5) • Comparative Example 6, Comparative Example 7, Comparative Example 8 (human), Comparative Example 9, Comparative Example 10 (human) and Comparative Example 12 (human) • 90/10(0)→10/90(2.5)→10/90(3.5)→90/10(3.6)→90/10(5.0) • flow rate: 0.4 mL/min • detection: ESI (positive mode) • injection: 1 to 5 μL"}, "[2]": {"test": "Evaluation of conversion rate to active form in human plasma (Experimental Example 3)", "assay_type": "in vitro ADME", "settings": "human, 0.2 μmol/L", "procedure": "as §1, §2, §3"}, "[3]": {"test": "Evaluation of conversion rate to active form in buffer solution (Experimental Example 1)", "assay_type": "physicochemical", "procedure": "For Examples 1 to 16 and Comparative Examples 1 to 14, the attrition rate of the test compound and the conversion rate of the test compound to Alvocidib in a buffer solution were calculated by the following method.\nExamples 1 to 16 and Comparative Examples 1 to 14 were each left in buffer solutions adjusted to pH 5.0, 5.5, 6.0, 6.5, 7.0 and 7.4, respectively, at a concentration of 25 umol/L at 37° C. After 0, 0.5, 1, 2 and 3 hours, the residual rates of the compounds of Examples […] and the production rate of Alvocidib were determined by HPLC.\nThe buffer solutions used at each pH are as follows. • pH 5.0: 50 mM citrate buffer solution (pH 5.0) • pH 5.5: 50 mM citrate buffer solution (pH 5.5) • pH 6.0: 50 mM phosphate buffer solution (pH 6.0) • pH 6.5: 50 mM phosphate buffer solution (pH 6.5) • pH 7.0: 50 mM phosphate buffer solution (pH 7.0) • pH 7.4: 50 mM phosphate buffer solution (pH 7.4)\nThe measurement conditions for HPLC are as follows."}}}
{"smiles": "CCOC(=O)O[C@@H]1CN(C)CC[C@@H]1c1c(O)cc(O)c2c(=O)cc(-c3ccccc3Cl)oc12", "note": "[Comparative Example 3, reference compound]", "values": [{"measurement": "Production rate (%) of Alvocidib", "setting": "[1]; 0 min", "result": 1, "unit": "%"}, {"measurement": "Residual rate (%) of test compound", "setting": "[1]; 0 min", "result": 100, "unit": "%"}, {"measurement": "Production rate (%) of Alvocidib", "setting": "[1]; 60 min", "result": 7, "unit": "%"}, {"measurement": "Residual rate (%) of test compound", "setting": "[1]; 60 min", "result": 90, "unit": "%"}, {"measurement": "Production rate (%) of Alvocidib", "setting": "[1]; 120 min", "result": 13, "unit": "%"}, {"measurement": "Residual rate (%) of test compound", "setting": "[1]; 120 min", "result": 78, "unit": "%"}, {"measurement": "Production rate (%) of Alvocidib", "setting": "[2]; 0 min", "result": 1, "unit": "%"}, {"measurement": "Residual rate (%) of test compound", "setting": "[2]; 0 min", "result": 100, "unit": "%"}, {"measurement": "Production rate (%) of Alvocidib", "setting": "[2]; 60 min", "result": 1, "unit": "%"}, {"measurement": "Residual rate (%) of test compound", "setting": "[2]; 60 min", "result": 78, "unit": "%"}, {"measurement": "Production rate (%) of Alvocidib", "setting": "[2]; 120 min", "result": 2, "unit": "%"}, {"measurement": "Residual rate (%) of test compound", "setting": "[2]; 120 min", "result": 101, "unit": "%"}, {"measurement": "Production rate of Alvocidib", "setting": "[3]; pH5.0, 0 hr", "result": 1.2, "unit": "%"}, {"measurement": "Residual rate", "setting": "[3]; pH5.0, 0 hr", "result": 90.6, "unit": "%"}, {"measurement": "Production rate of Alvocidib", "setting": "[3]; pH5.0, 0.5 hr", "result": 1.2, "unit": "%"}, {"measurement": "Residual rate", "setting": "[3]; pH5.0, 0.5 hr", "result": 90.6, "unit": "%"}, {"measurement": "Production rate of Alvocidib", "setting": "[3]; pH5.0, 1 hr", "result": 1.2, "unit": "%"}, {"measurement": "Residual rate", "setting": "[3]; pH5.0, 1 hr", "result": 90.7, "unit": "%"}, {"measurement": "Production rate of Alvocidib", "setting": "[3]; pH5.0, 2 hr", "result": 1.3, "unit": "%"}, {"measurement": "Residual rate", "setting": "[3]; pH5.0, 2 hr", "result": 90.2, "unit": "%"}, {"measurement": "Production rate of Alvocidib", "setting": "[3]; pH5.0, 3 hr", "result": 1.2, "unit": "%"}, {"measurement": "Residual rate", "setting": "[3]; pH5.0, 3 hr", "result": 90.6, "unit": "%"}, {"measurement": "Production rate of Alvocidib", "setting": "[3]; pH5.5, 0 hr", "result": 1.1, "unit": "%"}, {"measurement": "Residual rate", "setting": "[3]; pH5.5, 0 hr", "result": 90.9, "unit": "%"}, {"measurement": "Production rate of Alvocidib", "setting": "[3]; pH5.5, 0.5 hr", "result": 1.1, "unit": "%"}, {"measurement": "Residual rate", "setting": "[3]; pH5.5, 0.5 hr", "result": 90.9, "unit": "%"}, {"measurement": "Production rate of Alvocidib", "setting": "[3]; pH5.5, 1 hr", "result": 1.2, "unit": "%"}, {"measurement": "Residual rate", "setting": "[3]; pH5.5, 1 hr", "result": 90.6, "unit": "%"}, {"measurement": "Production rate of Alvocidib", "setting": "[3]; pH5.5, 2 hr", "result": 1.2, "unit": "%"}, {"measurement": "Residual rate", "setting": "[3]; pH5.5, 2 hr", "result": 89.9, "unit": "%"}, {"measurement": "Production rate of Alvocidib", "setting": "[3]; pH5.5, 3 hr", "result": 1.1, "unit": "%"}, {"measurement": "Residual rate", "setting": "[3]; pH5.5, 3 hr", "result": 90.7, "unit": "%"}, {"measurement": "Production rate of Alvocidib", "setting": "[3]; pH6.0, 0 hr", "result": 1.1, "unit": "%"}, {"measurement": "Residual rate", "setting": "[3]; pH6.0, 0 hr", "result": 91.0, "unit": "%"}, {"measurement": "Production rate of Alvocidib", "setting": "[3]; pH6.0, 0.5 hr", "result": 1.2, "unit": "%"}, {"measurement": "Residual rate", "setting": "[3]; pH6.0, 0.5 hr", "result": 90.8, "unit": "%"}, {"measurement": "Production rate of Alvocidib", "setting": "[3]; pH6.0, 1 hr", "result": 1.1, "unit": "%"}, {"measurement": "Residual rate", "setting": "[3]; pH6.0, 1 hr", "result": 90.9, "unit": "%"}, {"measurement": "Production rate of Alvocidib", "setting": "[3]; pH6.0, 2 hr", "result": 1.2, "unit": "%"}, {"measurement": "Residual rate", "setting": "[3]; pH6.0, 2 hr", "result": 90.0, "unit": "%"}, {"measurement": "Production rate of Alvocidib", "setting": "[3]; pH6.0, 3 hr", "result": 1.2, "unit": "%"}, {"measurement": "Residual rate", "setting": "[3]; pH6.0, 3 hr", "result": 90.9, "unit": "%"}, {"measurement": "Production rate of Alvocidib", "setting": "[3]; pH6.5, 0 hr", "result": 1.1, "unit": "%"}, {"measurement": "Residual rate", "setting": "[3]; pH6.5, 0 hr", "result": 90.8, "unit": "%"}, {"measurement": "Production rate of Alvocidib", "setting": "[3]; pH6.5, 0.5 hr", "result": 1.1, "unit": "%"}, {"measurement": "Residual rate", "setting": "[3]; pH6.5, 0.5 hr", "result": 90.9, "unit": "%"}, {"measurement": "Production rate of Alvocidib", "setting": "[3]; pH6.5, 1 hr", "result": 1.2, "unit": "%"}, {"measurement": "Residual rate", "setting": "[3]; pH6.5, 1 hr", "result": 90.8, "unit": "%"}, {"measurement": "Production rate of Alvocidib", "setting": "[3]; pH6.5, 2 hr", "result": 1.3, "unit": "%"}, {"measurement": "Residual rate", "setting": "[3]; pH6.5, 2 hr", "result": 89.9, "unit": "%"}, {"measurement": "Production rate of Alvocidib", "setting": "[3]; pH6.5, 3 hr", "result": 1.2, "unit": "%"}, {"measurement": "Residual rate", "setting": "[3]; pH6.5, 3 hr", "result": 90.8, "unit": "%"}, {"measurement": "Production rate of Alvocidib", "setting": "[3]; pH7.0, 0 hr", "result": 1.1, "unit": "%"}, {"measurement": "Residual rate", "setting": "[3]; pH7.0, 0 hr", "result": 91.0, "unit": "%"}, {"measurement": "Production rate of Alvocidib", "setting": "[3]; pH7.0, 0.5 hr", "result": 1.2, "unit": "%"}, {"measurement": "Residual rate", "setting": "[3]; pH7.0, 0.5 hr", "result": 91.0, "unit": "%"}, {"measurement": "Production rate of Alvocidib", "setting": "[3]; pH7.0, 1 hr", "result": 1.2, "unit": "%"}, {"measurement": "Residual rate", "setting": "[3]; pH7.0, 1 hr", "result": 90.9, "unit": "%"}, {"measurement": "Production rate of Alvocidib", "setting": "[3]; pH7.0, 2 hr", "result": 1.4, "unit": "%"}, {"measurement": "Residual rate", "setting": "[3]; pH7.0, 2 hr", "result": 89.8, "unit": "%"}, {"measurement": "Production rate of Alvocidib", "setting": "[3]; pH7.0, 3 hr", "result": 1.3, "unit": "%"}, {"measurement": "Residual rate", "setting": "[3]; pH7.0, 3 hr", "result": 90.8, "unit": "%"}, {"measurement": "Production rate of Alvocidib", "setting": "[3]; pH7.4, 0 hr", "result": 1.1, "unit": "%"}, {"measurement": "Residual rate", "setting": "[3]; pH7.4, 0 hr", "result": 91.0, "unit": "%"}, {"measurement": "Conversion to Alvocidib at pH 7.4", "setting": "[3]; pH 7.4, 37° C., up to 3 hours", "result": "slowly converted to Alvocidib"}, {"measurement": "Production rate of Alvocidib", "setting": "[3]; pH7.4, 0.5 hr", "result": 1.2, "unit": "%"}, {"measurement": "Residual rate", "setting": "[3]; pH7.4, 0.5 hr", "result": 91.0, "unit": "%"}, {"measurement": "Production rate of Alvocidib", "setting": "[3]; pH7.4, 1 hr", "result": 1.2, "unit": "%"}, {"measurement": "Residual rate", "setting": "[3]; pH7.4, 1 hr", "result": 91.0, "unit": "%"}, {"measurement": "Production rate of Alvocidib", "setting": "[3]; pH7.4, 2 hr", "result": 1.4, "unit": "%"}, {"measurement": "Residual rate", "setting": "[3]; pH7.4, 2 hr", "result": 90.1, "unit": "%"}, {"measurement": "Production rate of Alvocidib", "setting": "[3]; pH7.4, 3 hr", "result": 1.3, "unit": "%"}, {"measurement": "Residual rate", "setting": "[3]; pH7.4, 3 hr", "result": 90.8, "unit": "%"}]}
